# Columns and labels:
# Rat aorta α1D = target: T1, Rat aorta α1D (Rattus norvegicus, UniProt P23944); assay: Functional antagonism of noradrenaline-induced contraction, rat aorta strips; format: cell-based, Sprague Dawley rats; conditions: noradrenaline as agonist, 30 minutes incubation, Schild plot; read-out: Functional affinity pKB, Rat aorta α1D (converted)
# T1 construct: from tissue; host or cells: rat thoracic aorta, helicoidal strips
# T1 sequence (P23944 1-561): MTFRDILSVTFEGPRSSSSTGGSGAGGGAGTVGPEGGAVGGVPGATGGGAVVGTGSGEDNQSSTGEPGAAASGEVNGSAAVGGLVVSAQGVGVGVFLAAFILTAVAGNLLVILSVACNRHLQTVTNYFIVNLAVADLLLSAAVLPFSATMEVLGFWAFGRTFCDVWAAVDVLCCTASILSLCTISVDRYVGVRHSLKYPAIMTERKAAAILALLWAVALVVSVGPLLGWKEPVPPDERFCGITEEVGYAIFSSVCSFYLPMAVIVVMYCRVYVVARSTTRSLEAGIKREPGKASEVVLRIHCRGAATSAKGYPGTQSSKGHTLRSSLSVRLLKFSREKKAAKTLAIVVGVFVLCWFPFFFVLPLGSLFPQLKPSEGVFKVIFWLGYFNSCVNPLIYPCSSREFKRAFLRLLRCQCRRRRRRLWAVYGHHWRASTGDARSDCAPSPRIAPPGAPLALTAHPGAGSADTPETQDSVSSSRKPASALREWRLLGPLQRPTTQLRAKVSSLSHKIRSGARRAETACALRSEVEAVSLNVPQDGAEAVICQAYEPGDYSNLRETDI
# Description: In vitro assessment of functional antagonism for α1-adrenoceptor subtypes
# Thoracic aorta was obtained from Sprague Dawley rats, cut in helicoidal strips and placed in Krebs solution containing desmethylimipramine (0.1 µM), corticosterone (1 µM), propranol (1 µM) and yohimbine (0.1 µM). The strips were mounted for isotonic tension recording in an organ bath containing the above Krebs buffer enriched and aerated constantly with 95% O2 and 5% CO2, maintained at 37°C and loaded with 1.5 g. After an equilibration period, the strips were primed twice with 10 µM noradrenaline, then concentration/response-to-the-agonist curves were constructed before (basal) and after 30 minutes incubation with single antagonist concentrations (response). The Schild-plot parameters were evaluated by linear-regression analysis according to Tallarida and Murray (Manual of Pharmacologic Calculations with Computer Programs, 53-56, Springer-Verlag).
# [1] = system: conscious rats with partial bladder-outlet obstruction; assay: Cystometry in conscious rats with infravesical outflow obstruction by partial urethral ligature; format: in vivo, Female Sprague Dawley rats; conditions: 0.3 mg/kg i.v.
# Description: Effects on cystometric parameters in conscious rats with […] outflow obstruction by partial urethral ligature. Female Sprague Dawley rats of 225-275 g body weight [Crl: CD(SD)BR, from Charles River Italia, Calco, Como] were used. The animals were housed with free access to food and water and maintained on a forced 12 hour alternating light dark cycle at 22-24°C for at least one week, except during experiment performance. In order to obtain a partial obstruction of the urethra, the method previously reported by Malmgren (Malmgren A. et al., J. UroL 137, 1291-1294, 1987; Neurourol. […] Pharmacol. […] The rats were anaesthetised with intraperitoneal (i.p.) administration of 3 ml/kg of Equithensin solution (pentobarbital 1.215 g, chloral hydrate 5.312 g, magnesium sulphate 2.657 g, ethanol 12.5 ml, propylene glycol 49.5 ml, distilled water to 125 ml of final volume) and then the bladder and proximal urethra were exposed via an abdominal midline incision. A silk ligature was placed around the urethra and tied in the presence of an intraluminally placed indwelling polyethylene cannula with an outside diameter of 1.22 mm. After removing the polyethylene cannula, the abdominal wall was sutured and then antibiotic medication (penicillin G 200000 I.U./kg and streptomycin 260 mg/kg i.p.) was performed. After three weeks of obstruction the animals were prepared for cystometry. The animals, anesthetized as reported above, were placed in a supine position and a midline incision was made in the shaved and cleaned abdominal wall. The urinary bladder was exposed and gently freed from adhering tissues, emptied and then cannulated, via an incision at the dome, with a polyethylene cannula (0.58 mm inside diameter and 0.96 mm outside diameter), which was permanently sutured with silk thread. For intravenous bolus injection a similar polyethylene tubing filled with physiological saline containing sodium heparin (40 I.U./ml) was inserted into the jugular vein. The cannulae were exteriorised through a subcutaneous tunnel in the retroscapular area, where they were connected with a plastic adapter, in order to avoid the risk of removal by the animal. Two days after bladder catheter implantation, the animals, fasted overnight, were placed in Bollman's cages or in particular plastic cages which allowed some lateral and back and forth movement of the rats, allowing measurements of micturition volume (MV). After a stabilisation period of 20 minutes, the free tip of the bladder cannula was connected to a pressure transducer and to a peristaltic pump for a continuous infusion of warm saline solution (37° C), into the urinary bladder. In order to shorten the time-period of saline infusion necessary to provoke micturition in the obstructed rats, a filling rate of the bladder of 10 ml/h was chosen. During infusion of saline into the bladder, the intravesical pressure signal and urine volume micturated were continuously recorded on chart polygraph. […] BVC (in ml) was defined as the volume of saline infused into the bladder from the start of the infusion to micturition. […] MV (in ml), defined as the volume of expelled urine during each single micturition, was recorded by means of a force displacement transducer connected to the polygraph and measuring the urine collected in a small reservoir placed under the cage. Basal values of the parameters above reported were evaluated as the mean of the values obtained in two complete and reproducible cystometrograms before treatment (time 0). Then the animals were treated intravenously by bolus injection with the test compound under continuous infusion of saline into the bladder. The parameter changes after compound injection (first cystometrogram and those recorded approximately after 30 and 60 minutes) were compared with the values recorded before injection (basal values).
structure (smiles),measurement,setting,value
"O=C1CC2(CCCC2)CC(=O)N1CCN1CCN(c2cc(Cl)ccc2Cl)CC1 [Example 1, 8-{2-[4-(2,5-Dichlorophenyl)-1-piperazinyl]-ethyl}-8-azaspiro[4.5]decane-7,9-dione]",Kb,Rat aorta α1D,1.02 nM
same,"BVC mean values, change",[1],20-30%
same,changes in MP values,[1],no significant changes
same,"BVC (bladder volume capacity), % changes vs basal values",[1]; 30 minutes,22%
same,"MP (micturition pressure), % changes vs basal values",[1]; 30 minutes,-7%
same,"MV (micturition volume), % changes vs basal values",[1]; 30 minutes,42%
same,"NMC – A (non-micturition contractions, amplitude), % changes vs basal values",[1]; 30 minutes,-33%
same,"NMC – F (non-micturition contractions, frequency), % changes vs basal values",[1]; 30 minutes,-38%
same,"BVC (bladder volume capacity), % changes vs basal values",[1]; 60 minutes,30%
same,"MP (micturition pressure), % changes vs basal values",[1]; 60 minutes,-6%
same,"MV (micturition volume), % changes vs basal values",[1]; 60 minutes,28%
same,"NMC – A (non-micturition contractions, amplitude), % changes vs basal values",[1]; 60 minutes,-38%
same,"NMC – F (non-micturition contractions, frequency), % changes vs basal values",[1]; 60 minutes,-23%
same,"BVC (bladder volume capacity), % changes vs basal values",[1]; First cystometrogram,26%
same,"MP (micturition pressure), % changes vs basal values",[1]; First cystometrogram,-2%
same,"MV (micturition volume), % changes vs basal values",[1]; First cystometrogram,35%
same,"NMC – A (non-micturition contractions, amplitude), % changes vs basal values",[1]; First cystometrogram,-35%
same,"NMC – F (non-micturition contractions, frequency), % changes vs basal values",[1]; First cystometrogram,-24%
same,frequency and amplitude of the non-voiding contractions,[1]; immediately after the injections,rapid decrease
